Experimental data: patent US20040076683A1, “Stealth lipid nanocapsules, methods for the preparation thereof, and use thereof as a carrier for active principle(s)” (ETHYPHARM, priority 2002, published 2004)

Assay: Solubility of paclitaxel and docetaxel in triglycerides
Format: physicochemical
Conditions: dissolved at 75 °C, no recrystallization at room temperature
Description: A solution of docetaxel or paclitaxel in triglycerides, which will constitute the inner core of the lipid nanocapsules, is prepared by dissolving the drug into the triglyceride at 75° C. The amount of drug is adjusted in order to obtain solutions that will not recrystallize upon cooling to room temperature.

[1] = in Labrafac CC (C8 content 56.7%)
[2] = in Miglyol 810 N (C8 content 70.4%)

Solubility (% w/w) [1] | Solubility (% w/w) [2] | Solubility (% w/w) (in Tricaprylin (C8 >99%)) | Compound
2 % w/w | 3.9 % w/w | 7 % w/w | CC(=O)O[C@@]12CO[C@@H]1C[C@H](O)[C@@]1(C)C(=O)[C@H](O)C3=C(C)[C@@H](OC(=O)[C@H](O)[C@@H](NC(=O)OC(C)(C)C)c4ccccc4)C[C@@](O)([C@@H](OC(=O)c4ccccc4)[C@H]21)C3(C)C [Docetaxel, docetaxel]
1.6 % w/w | 2.7 % w/w | 6 % w/w | CC(=O)O[C@H]1C(=O)[C@@]2(C)[C@H]([C@H](OC(=O)c3ccccc3)[C@]3(O)C[C@H](OC(=O)[C@H](O)[C@@H](NC(=O)c4ccccc4)c4ccccc4)C(C)=C1C3(C)C)[C@]1(OC(C)=O)CO[C@@H]1C[C@@H]2O [Paclitaxel, paclitaxel]
